Tested on: cleaved PARP in SU-DHL-10 tumors
Assay: Pharmacodynamics in SU-DHL-10 xenograft tumors, cleaved PARP
Assay type: in vivo, C.B-17 SCID mice
Conditions: single dose
Protocol: The levels of p-Ser2, p-Ser5 and total RNA polymerase II, Myc, Mcl-1, cleaved PARP (cPARP), and cleaved Caspase 3 were assessed by Western blotting and quantified near-infrared detection and background corrected quantification of fluorescence intensity on an Odyssey Imaging System with IRDye secondary antibodies (LI-COR Biosciences). For quantification, the protein levels were normalized to GAPDH or HSP90, expressed as a ratio to DMSO or vehicle control at matched timepoints. The normalized relative protein levels of p-Ser2 were used for a treatment effect comparison by performing an ANOVA using PROC MIXED in SAS. The ANOVA model included treatment, timepoints and their interactions as fixed effects. The least square means (LSM), differences between the LSMs and associated P values were generated. The following primary antibodies were used: Rpb1 NTD (D8L4Y) rabbit antibody [Cell Signaling Technology (CST), #14958], anti-RNA polymerase II subunit B1 (phospho CTD Ser-2, clone 3E10) rat antibody (Merck, 04-1571-I), recombinant anti-c-MYC rabbit antibody (Y69; Abcam, #ab32072), MCL1 (D5V5L) rabbit antibody (CST, #39224), cleaved-PARP (Asp214) (E2T4K) mouse antibody (CST, #32563), HSP90 (C45G5) rabbit antibody (CST, #4877), and GAPDH mouse antibody (Zytomed Systems, #ZYT-RGM2-6C5). […]

Structure (SMILES): COc1cc(F)ccc1-c1cc(Nc2cc(CS(C)(=N)=O)ccn2)ncc1F (stereo not shown) [enitociclib]
- cleaved PARP in tumors (in words): increase in cleaved PARP

— article PMC10634346 (Cancer Research Communications, 2023)
